Results as given in patent publication US20180353445A1, “METHODS AND COMPOSITIONS RELATING TO PROTEASOME INHIBITOR RESISTANCE” (Whitehead Institute for Biomedical Research, priority 2017, published 2018).
“Also recorded” adds a separate entry of the source.

How the values were obtained:
MM.1.S xenograft = assay: Disseminated (orthotopic) multiple myeloma MM.1.S xenograft model and survival study; format: in vivo, mouse; settings: for effect on tumor burden / tumor progression (BLI) / median OS: SCID mice, MM.1.S; for effect on tumor burden / tumor progression (BLI): bioluminescence imaging; for median OS: control median OS 36
Experimental: To test this hypothesis, we established an orthotopic luciferized MM.1.S xenograft model by intravenous injection of MM.1.S cells into severe combined immunodeficient (SCID) mice. After engraftment, the mice were randomized into treatment groups, each carrying equivalent tumor burdens based on bioluminescence imaging (BLI). Mice were then treated with either vehicle alone, bortezomib, elesclomol or with the two drugs in combination.
GFP^+/Luc^+MM.1S cells were generated by retroviral transduction of the human MM1.S that was purchased from ATCC (Manassas, Va., USA)., using the pGC-GFP/Luc vector. Cells were authenticated by short tandem repeat DNA profiling.
Disseminated Multiple Myeloma Animal model and survival study—A total of 25 Female SCID-beige mice at 4-6 weeks of age (Taconic, USA) were utilized for the study. Tumors cells (3 million […] MM1S cells/mouse) were introduced into mice via intravenous injection and were allowed to grow until the LUC signal from their tumors reached 1×10^7 radians (photons/sec/cm^2/surface area). Tumor growth was monitored weekly by bioluminescence imaging (BLI), using an IVIS Spectrum-bioluminescent and fluorescent imaging system (Perkins Elmer). Mice were randomly attributed a group of treatment (n=5 per group). Control group was IV injected once a week 200 uL saline solution; Bortezomib (0.25 mg/kg, 100 uL) was IP injected first day of the week, once a week until death of the animal. Elesclomol (25 mg/kg, 100 uL) was subcutaneously injected every 3rd day of the week until death of the animal. Elesclomol+Bortezomib group were treated similarly to previous groups. The delayed group started the elesclomol treatment 14 days after the inclusion of the animal in the study. Endpoint of the study was dictated by either limb-paralysis of the animal or severe toxicity induced by the treatment as per Dana-Farber Animal policy.

[1] = system: T47D cells harboring a doxycycline inducible PSMD2 KD shRNA construct; assay: Viability of PSMD2 knockdown versus control T47D cells, dose response and combinations (CellTiter-Glo); format: cell-based, human; settings: for sensitivity of PSMD2 KD cells versus control cells (cell viability): 1 ug/ml doxycycline 72 h, viability 72 hours after addition, CellTiter-Glo
Experimental: Cell viability was measured by CellTiter-Glot Luminescent Cell Viability Assay 72 hours after addition of the compounds to cells.
Cell viability was measured by CellTiter-Glo® Luminescent Cell Viability Assay 72 hours after addition of the compounds were added to cells.
Cell viability was measured by CellTiter-Glolk Luminescent Cell Viability Assay 72 hours after addition of the compounds to cells.
To directly test whether altered cellular metabolism can modulate the sensitivity of cancer cells to proteasome inhibitors, we engineered the breast cancer cell line T47D into Lo19S and increased OXPHOS states. Initially, we reconstituted the Lo19S state by transient suppression of the PSMD2 subunit of the 19S complex using an inducible shRNA.
To induce a high OXPHOS (Hi-OXPHOS) state, we changed the carbon source in the cell culture media from glucose to galactose, which is poorly fermentable. This method has been previously shown to drive glutamine utilization by mitochondria and to thus increase mitochondrial respiration (Gohil et al., 2010). […] We reasoned that the Hi-OXPHOS signature we identified in Lo19S patient tumors may cooperate with the Lo19S state to further promote the ability of the cells to withstand proteotoxic stress.
Cell viability—where indicated relative cell number following different drug treatment was conducted by plating cells at 1000 cells/well in 384 well plates. Indicated concentrations of compounds were added 24 hour after plating at least in triplicate for each condition. Viability was measured 72 hours after drug addition using cell titer-glo (Promega) according to manufactures protocol. Same protocol was applied for the experiments conducted for the Lo19S T47D, MCF7 and T47D in the context of altered carbon source only the cells were plated at 1000 cells/well in RPMI media (without glucose and with dialyzed serum) containing either 10 mM Glucose or lOmM galactose.

FDX1 = biological target: T1, FDX1 (Homo sapiens, UniProt P10109); assay: Electron transfer from reduced FDX1 to the cysteine desulfurase complex; format: biochemical; settings: upon addition of cysteine
T1 construct: made in house
T1 sequence (P10109 62-184): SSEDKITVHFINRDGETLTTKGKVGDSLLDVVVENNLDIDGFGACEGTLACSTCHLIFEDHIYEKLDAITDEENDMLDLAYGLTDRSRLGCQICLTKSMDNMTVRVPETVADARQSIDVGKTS

T47D cells = assay: Drug library screen (Selleck anti-cancer, NPC, NIH bioactive), PSMD2 KD vs control T47D cells; format: cell-based, human; settings: for growth inhibition of T47D cells with reduced level of PSMD2 vs control T47D cells: Selleck anti-cancer compound library screen
Experimental: Schematic representation of the drug screen setup. (FIG. 37A) 147D cells harboring a doxycycline-inducible PSMD2 shRNA were grown in the presence or absence of doxycycline for 48 hr. Cells were then collected, washed, and plated in the absence of doxycycline for 24 hr prior to exposure different compounds. Relative cell numbers were measured 3 days later.
The relative viability of the Lo19S versus control cells was calculated for replica experiments and the log2 of the ratio is plotted. […] The relative viability of the respiring cells (Hi-OXPHOS) (gal) versus the control cells (glu) was calculated for replica experiments and the log2 of the ratio is plotted.
After 48 hours the cells were collected, counted, and plated at 1000 cells/well in 384 well plates in duplicates for each cell line. Compounds from the Selleck Chemicals anti-cancer compound library (349 drugs in 4 concentrations; […]) were pinned the next day and viability was measured after 72 hours by the reduction of Resazurin (Ex=530 run, Em=590nin). (See FIG. 37A for schematic of screen.)

cancer cells = assay: Cell viability, elesclomol and elesclomol analogs (cell titer-glo); format: cell-based; settings: across a variety of tumor types
Source text: In addition to the intrinsic sensitivity of certain cancer cells to elesclomol, as our drug screen indicated, the sensitivity of cancer cells to elesclomol can be further enhanced by forcing them into a Hi-OXPHOS state.
We examined several elesclomol analogs (FIG. 57B) to determine the structural features that are important for mediating its cytotoxicity. […] Substitution of oxygen for even one of the sulfur groups (compound-5) reduced the activity of elesclomol by 300 fold. The loss of activity was even more pronounced (>>300 fold) when both sulfurs were substituted (compound-6) (FIGS. 51C-51D, FIG. 57C). Various other modifications to the elesclomol scaffold were tolerated, as long as the core sulfur geometry remained intact.
Cell viability—where indicated relative cell number following different drug treatment was conducted by plating cells at 1000 cells/well in 384 well plates. Indicated concentrations of compounds were added 24 hour after plating at least in triplicate for each condition. Viability was measured 72 hours after drug addition using cell titer-glo (Promega) according to manufactures protocol. […]

| Compound | effect on tumor burden / tumor progression (BLI) (MM.1.S xenograft) | median OS (MM.1.S xenograft) | sensitivity of PSMD2 KD cells versus control cells (cell viability) [1] | increase in the EC90 on combining the Lo19S and Hi-OXPHOS states ([1]; T47D, PSMD2 suppression plus galactose medium) [fold] | increase of proliferation inhibition EC50 on inducing the Lo19S state ([1]; T47D, transient PSMD2 suppression versus control) [fold] | effect on survival (MM.1.S xenograft; versus control) | electron transfer from reduced FDX1 to the cysteine desulfurase complex (FDX1) | sensitivity of proteasome inhibitor resistant cancer cells vs sensitive counterpart cells (T47D cells) | growth inhibition of T47D cells with reduced level of PSMD2 vs control T47D cells (T47D cells) | inhibition of cancer cell growth (cancer cells) |
| --- | --- | --- | --- | --- | --- | --- | --- | --- | --- | --- |
| CC(C)C[C@H](NC(=O)[C@H](Cc1ccccc1)NC(=O)c1cnccn1)B(O)O [bortezomib] | modest effects on tumor burden | 40 | increase in resistance | 50 | ~4 |  |  |  |  |  |
| CN(NC(=O)CC(=O)NN(C)C(=S)c1ccccc1)C(=S)c1ccccc1 [elesclomol] | modest effects on tumor burden | 39 |  |  |  | modestly but significantly increased survival | inhibits electron transfer | highly sensitive | selectively inhibit growth | potent inhibitor of cancer cell growth |
| CC1(C)CCC(c2ccc(Cl)cc2)=C(CN2CCN(c3ccc(C(=O)NS(=O)(=O)c4ccc(N[C@H](CCN5CCOCC5)CSc5ccccc5)c(S(=O)(=O)C(F)(F)F)c4)cc3)CC2)C1 [ABT-263, navitoclax] |  |  | more sensitive; also recorded: not sufficient, however, to induce a profound sensitization |  |  |  |  | highly sensitive | selectively inhibits growth |  |
